Patent US20260022143A1, “Cyclic Peptide Inhibitors of IL-23” (JANSSEN PHARMACEUTICA NV, priority 2022, published 2026)
Where two headings read alike, the source gives them in different places.

Assay: Exposed Polar Surface Area (EPSA)
Type: physicochemical
Settings: SFC on Chirex 3014 column, sample 1 mM DMSO stock
Description: Exposed Polar Surface Area (EPSA) is an experimental descriptor of molecular polarity obtained from chromatographic retention in supercritical fluid chromatography (SFC).
The stationary phase (Chirex 3014(S)-valine and (R)-1-(alpha-naphthyl) ethylamine) was selected for its balance of lipophilic and polar attributes and its capacity to separate compounds with wide polarity differences. The mobile phase consists of methanol (+Ammonium formate) and CO2. Polar compounds are retained stronger under these conditions and a low-slope gradient of methanol achieves elution based on increasing polarity of the mobile phase. Results are normalized using calibration standards generating a linear relationship between retention times and EPSA values. The unit of EPSA is Å^2.
Along with the measurement of compounds of interest, a series of 8 calibration standards (see Materials) are analyzed generating a linear relationship between retention times and EPSA value. The 8 compounds used as calibration standard have their own EPSA value defined by G. Goetz based on the comparison with TPSA (see G. Goetz, L. Philippe and M. Shapiro, “EPSA: A novel supercritical fluid chromatography technique enabling the design of permeable cyclic peptides,” ACS Med. Chem. Lett., vol. 5, pp. 1167-1172, 2014 for more information). The slope from the linear relationship between EPSA values of these eight compounds and their retention times is used to determine the EPSA value of each compound of interest that's measured under the same condition using the equation as below: […]
The mixture of calibrations standard is reinjected every 20 compounds to validate the stability of the retention time.
The mobile phase modifier consists of ammonium formate LC_MS grade (>99%) (CAS number 540-69-2) diluted to 20 mM in HPLC grade Methanol (MeOH, CAS number 67-56-1) and liquid C02 SFC grade (CAS number 124-38-9).
Antipyrine (CAS number: 60-80-0) Chlorpromazine hydrochloride (CAS number: 69-09-0), desipramine hydrochloride (CAS number: […]), pindolol (CAS Number: 13523-86-9), diclofenac (CAS number: 15307-79-6)), m-nitro benzoic acid (CAS number: 121-92-6), bumetanide (CAS number: 28395-03-1), furosemide (CAS number: 54-31-9) were purchased from Sigma Aldrich (Steihneim, Germany).
All analyses were performed on a ultra performance convergence chromatography (UPC™) apparatus (Waters, Milford, MA, USA) equipped with a sample manager, a binary solvent delivery pump (BSM), a column manager, a convergence manager (automated back pressure regulator), a photo diode array detector (DAD) with a high pressure flow cell, and a mass detector simple quadrupole QDa. After the UV detector, the effluent of the SFC was mixed with an eluent consist of mixture MeOH/water (+0.3% Ammonia) 95/5 delivered by a make up pump with a flow rate of 0.4 mL/min and then split to the QDa using a splitter. The instrument was controlled, and data were processed with Masslynx 4.1.
The Analyses were performed using a 4.6×50 mm Chirex 3014(S)-valine and (R)-1-(alpha- naphthyl) ethylamine column (Phenomenex, Le Pecq, France) with 5 um particle and 100A pore size. The flow rate was 4 mL/min with the outlet pressure set to 14 MPa. The injection volume was 2 μL. the mobile phase composition was varied from 5% to 60% modifier at 20%/ min in a linear gradient, holding at 60% for 1.45 min and reverting to the original 5% until the end of the run. Data are acquired during 5 min. An equilibration time of 1 min is applied between 2 injections resulting in an injection every 6 min. each sample is analyzed in duplicate, resulting in a sample to sample turnaround time of 12 min.
The column temperature was set to 35° C. The mass detector was used in full scan from 100 to 800 for small molecules and from 500 to 1200 for peptides.
Each sample is delivered by compound logistics from DMSO stock solution without dilution. The concentration is 1 mM and the volume is 60 μL.

| EPSA [Å^2] | EPSA (read-out: EPSA) [A^2] | SMILES |
| --- | --- | --- |
|  | 145 | CC(=O)N(C)CCCC[C@@H]1NC(=O)[C@H](Cc2c[nH]c3c(C)cccc23)NC(=O)[C@H]([C@@H](C)O)NC(=O)[C@H](CC(=O)N(C)C)NC(=O)[C@@H](NC(=O)CCOCCOCC[N+](C)(C)C)C(C)(C)SSC(C)(C)[C@@H](C(=O)N[C@@H](Cc2ccc(OCC3CCC([N+](C)(C)C)CC3)cc2)C(=O)N[C@@H](Cc2ccc3ccccc3c2)C(=O)NC2(C(=O)N[C@@H](CCCCN(C)C(C)=O)C(=O)N[C@@H](CC(N)=O)C(=O)N[C@@H](Cc3cccnc3)C(=O)N(C)CC(=O)N(C)C)CCOCC2)NC1=O (single isomer, unassigned) [compound 210, cPEG3aCO-Pen(3)-N(N(Me)2)-T-7MeW-K(NMeAc)-Pen(3)-ACHMF-2Nal-THP-K(NMeAc)-N-3Pya-Sar-CON(Me)2] |
| 142.87 |  | CC(=O)N(C)CCCC[C@@H]1NC(=O)[C@H](Cc2c[nH]c3c(C)cccc23)NC(=O)[C@H]([C@@H](C)O)NC(=O)[C@H](CC(=O)N(C)C)NC(=O)[C@@H](NC(=O)CCOCCOCC[N+](C)(C)C)C(C)(C)SSC(C)(C)[C@@H](C(=O)N[C@@H](Cc2ccc(OCC3CCC([N+](C)(C)C)CC3)cc2)C(=O)N[C@@H](Cc2ccc3ccccc3c2)C(=O)NC2(C(=O)N[C@@H](CCCCN(C)C(C)=O)C(=O)N[C@@H](CC(N)=O)C(=O)N[C@@H](Cc3cccnc3)C(=O)N(C)CC(=O)N(C)C)CCOCC2)NC1=O (single isomer, unassigned) [compound 222, cPEG3aCO-Pen(3)-N(N(Me)2)-T-7MeW-K(NMeAc)-Pen(3)-ACHMF-2Nal-THP-K(NMeAc)-N-3Pya-Sar-CON(Me)2] |
|  | 166 | CC(=O)NCCCC[C@@H]1NC(=O)[C@H](Cc2c[nH]c3c(C)cccc23)NC(=O)[C@H]([C@@H](C)O)NC(=O)[C@H](CC(N)=O)NC(=O)[C@@H](NC(C)=O)C(C)(C)SSC(C)(C)[C@@H](C(=O)N[C@@H](Cc2ccc(OCC3CCC([N+](C)(C)C)CC3)cc2)C(=O)N[C@@H](Cc2ccc3ccccc3c2)C(=O)NC2(C(=O)N[C@@H](CCCCNC(C)=O)C(=O)N[C@@H](CC(N)=O)C(=O)N[C@@H](Cc3cccnc3)C(=O)N(C)CC(N)=O)CCOCC2)NC1=O (single isomer, unassigned) [compound 530, MeCO-Pen(3)-N-T-7MeW-K(Ac)-Pen(3)-ACHMF(S*, S*)-2Nal-THP-K(Ac)-N-3Pya-Sar-CONH2] |

Second part, the compound before the results:

| SMILES | EPSA [Å^2] | EPSA (read-out: EPSA) [A^2] |
| --- | --- | --- |
| CC(=O)N(C)CCCC[C@@H]1NC(=O)[C@H](Cc2c[nH]c3c(C)cccc23)NC(=O)[C@H]([C@@H](C)O)NC(=O)[C@H](CC(=O)N(C)C)NC(=O)[C@@H](NC(=O)CCOCCOCC[N+](C)(C)C)C(C)(C)SSC(C)(C)[C@@H](C(=O)N[C@@H](Cc2ccc(OCCN)cc2)C(=O)N[C@@H](Cc2ccc3ccccc3c2)C(=O)NC2(C(=O)N[C@@H](CCN(C)C(C)=O)C(=O)N[C@@H](CC(N)=O)C(=O)N[C@@H](Cc3cccnc3)C(=O)N(C)CC(=O)N(C)C)CCC(F)(F)C2)NC1=O (single isomer, unassigned) [compound 180, cPEG3aCO-Pen(3)-N(N(Me)2)-T-7MeW-K(NMeAc)-Pen(3)-AEF-2Nal-diFCpx-Dab(NMeAc)-N-3Pya-Sar-CON(Me)2] | 150.1 |  |
| CC(=O)NCCCC[C@@H]1NC(=O)[C@H](Cc2c[nH]c3c(C)cccc23)NC(=O)[C@H]([C@@H](C)O)NC(=O)[C@H](CC(N)=O)NC(=O)[C@@H](NC(C)=O)C(C)(C)SSC(C)(C)[C@@H](C(=O)N[C@@H](Cc2ccc(OCCN)cc2)C(=O)N[C@@H](Cc2ccc3ccccc3c2)C(=O)NC2(C(=O)N[C@@H](CCC(=O)O)C(=O)N[C@@H](CC(N)=O)C(=O)N[C@@H](Cc3cccnc3)C(=O)N(C)CC(=O)N3CCOCC3)CCOCC2)NC1=O [SEQ ID 112, MeCO-Pen(3)—N-T-7MeW—K(Ac)-Pen(3)-AEF-2Nal-THIP-E-N-3Pya-Sar-COMor] |  | 169 |
